# Experimental data: US20090088466A1, “OPIOID RECEPTOR LIGANDS” (priority 2005, published 2009)
# How the values were obtained:
# [1] = molecular target: T1, hemagglutinin (HA-N-terminus) tagged mouse μOR (Mus musculus, UniProt P42866); assay: Phospho-ERK1/2 immunoblot assay; format: cell-based
# T1 construct: expressed in transfected cells
# [2] = molecular target: T2, HA-tagged mu opioid receptor (Mus musculus, UniProt P42866); assay: Immunoprecipitation / μOR phosphorylation at serine 375; format: cell-based; settings: HEK-293 cells stably expressing HA-tagged μOR; 10 μM, 10 min
# T2 construct: expressed in transfected cells
# HA-μOR = molecular target: T3, HA-μOR (Mus musculus, UniProt P42866); assay: Agonist-induced βarr2-GFP translocation to μOR in HEK-293 cells; format: cell-based
# T3 construct: expressed in transfected cells; host or cells: HEK-293 (transient)
# mouse μOR-YFP = molecular target: T4, mouse μOR-YFP (Mus musculus, UniProt P42866); assay: Agonist-induced internalization of μOR-YFP in HEK-293 cells; format: cell-based
# T4 construct: expressed in transfected cells; host or cells: HEK-293 (transient; GRK2 co-transfected in panel C)
# HA-N-terminus tagged μOR = molecular target: T5, HA-N-terminus tagged μOR (Mus musculus, UniProt P42866); assay: Immunofluorescence of cell surface receptors; format: cell-based; settings: intact nonpermeabilized HEK-293 cells; drug treatment over 2 hours
# T5 construct: expressed in transfected cells
# [3] = molecular target: T6, μOR1-D splice variant of the mouse μOR (Mus musculus, UniProt P42866); assay: Agonist-induced μOR1-D-GFP internalization; format: cell-based; settings: HEK-293 transiently transfected with μOR1-D-GFP
# T6 construct: expressed in transfected cells; host or cells: HEK-293 (transient)
# [4] = system: formalin-induced nociceptive responses; assay: Formalin rat paw withdrawal test; format: in vivo
# Text: Animals: Male Sprague-Dawley rats (Harlan, Indianapolis, Ind.) weighing 250-275 g were used. Rats were housed one to two per cage with free access to food and water, and maintained on a 12-h light/dark cycle in the Association for the Assessment and Accreditation of Laboratory Animal Care-approved animal care facility. The Institutional Animal Care and Use Committee of The University of Iowa approved all experimental procedures.
# Formalin Rat Paw Withdrawal Test: Rats were placed in clear plexiglass testing chambers (30.5×30.5×30.5 cm) and allowed to acclimate for 20 minutes. A mirror was placed at a 45° angle below the floor to allow for an unobstructed view of the rats paws. No restraint was placed on the rats and a HEPA filter was continuously run in order to mask external noise. Following the 20-min acclimation period, animals received a 100 μL injection of either Compound Vb (˜0.04 mg/kg) or vehicle subcutaneously in the paw and were placed back into the testing chamber for 5 minutes (Joshi et al., 2000; Joshi and Gebhart, 2003). Animals were then injected with 100 μL of a 1.25% formalin solution into the plantar surface according to the methods previously described (Dubuisson, D. & Dennis, S. G., […], Pain 4, 161-74; Wheeler-Aceto, H. & Cowan, A., 1991, Psychopharmacology (Berl) 104, 35-44; and Kaneko, M. & Hammond, D. L., 1997, J Pharmacol Exp Ther 282, 928-38). Behavior was observed and tracked for 1 hour and the number of flinches was recorded using a Windows XP-based (Microsoft, Seattle, Wash.) program. Each drug treatment group consisted of 6 rats and no rat was tested more than once. For the antagonist studies, rats were pretreated with either nor-binaltorphimine (nor-BNI) (5 mg/kg, 24 hours prior to agonist) or naloxone (5 mg/kg s.c. 30 min prior to agonist) subcutaneously behind the neck.
# Chronic study: Chronic animals were given vehicle or Compound Vb alternating dorsal and plantar surface to avoid sensitization caused from injections at the same site over a 5 day period. Following administration of drug on the fifth day, rats were then administered formalin and observed as described above.
# μOR = μOR (Homo sapiens, UniProt P35372); settings: CHO cells stably expressing each receptor type; cited from earlier work
# δOR = δOR (Homo sapiens, UniProt P41143); settings: CHO cells stably expressing each receptor type; cited from earlier work
# κOR = κOR (Homo sapiens, UniProt P41145); settings: cited from earlier work
# [5] = system: formalin-induced nociceptive responses; settings: similar testing conditions (literature); cited from earlier work
# [6] = HEK-293 transiently transfected with mouse μOR-YFP
# μOR, sequence (P35372 whole entry): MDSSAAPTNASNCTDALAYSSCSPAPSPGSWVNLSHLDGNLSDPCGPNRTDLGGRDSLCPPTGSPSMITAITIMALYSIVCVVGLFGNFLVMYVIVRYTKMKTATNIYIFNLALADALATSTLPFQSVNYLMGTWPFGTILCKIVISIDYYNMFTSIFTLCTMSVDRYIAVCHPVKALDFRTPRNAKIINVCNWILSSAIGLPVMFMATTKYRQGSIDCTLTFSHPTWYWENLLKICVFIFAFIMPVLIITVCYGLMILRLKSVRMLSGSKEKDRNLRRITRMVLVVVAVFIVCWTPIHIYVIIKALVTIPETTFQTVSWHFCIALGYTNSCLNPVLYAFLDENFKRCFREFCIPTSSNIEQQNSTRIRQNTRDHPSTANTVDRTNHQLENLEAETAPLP
# δOR, sequence (P41143 whole entry): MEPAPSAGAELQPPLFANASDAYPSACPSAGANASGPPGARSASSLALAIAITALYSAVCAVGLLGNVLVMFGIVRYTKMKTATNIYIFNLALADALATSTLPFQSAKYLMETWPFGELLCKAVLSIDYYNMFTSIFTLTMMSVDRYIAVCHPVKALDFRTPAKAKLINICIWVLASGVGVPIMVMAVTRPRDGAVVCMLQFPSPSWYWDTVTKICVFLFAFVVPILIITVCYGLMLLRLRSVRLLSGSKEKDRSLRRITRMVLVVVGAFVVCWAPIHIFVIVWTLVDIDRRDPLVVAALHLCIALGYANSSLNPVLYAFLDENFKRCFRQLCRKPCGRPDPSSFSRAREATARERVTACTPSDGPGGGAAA
# κOR, sequence (P41145 whole entry): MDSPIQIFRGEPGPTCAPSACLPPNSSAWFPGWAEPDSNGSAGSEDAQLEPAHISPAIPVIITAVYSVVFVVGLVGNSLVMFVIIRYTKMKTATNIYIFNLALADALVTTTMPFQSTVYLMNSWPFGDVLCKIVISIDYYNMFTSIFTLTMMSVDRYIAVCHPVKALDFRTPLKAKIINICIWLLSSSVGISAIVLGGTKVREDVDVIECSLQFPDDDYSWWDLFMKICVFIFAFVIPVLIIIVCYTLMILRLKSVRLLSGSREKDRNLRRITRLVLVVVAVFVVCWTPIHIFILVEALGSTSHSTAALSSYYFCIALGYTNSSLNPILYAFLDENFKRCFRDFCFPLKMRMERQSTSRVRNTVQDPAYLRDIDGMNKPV
smiles,measurement,setting,value
COC(=O)[C@@H]1C[C@H](OC(=O)c2ccccc2Br)C(=O)[C@@H]2[C@@]3(C)C[C@@H](c4ccoc4)OC(=O)[C@H]3CC[C@]21C,melting point,,189 to 191 °C
COC(=O)[C@@H]1C[C@H](OC(=O)c2cccc(Br)c2)C(=O)[C@@H]2[C@@]3(C)C[C@@H](c4ccoc4)OC(=O)[C@H]3CC[C@]21C,melting point,,195 to 199 °C
COC(=O)[C@@H]1C[C@H](OC(=O)c2cccs2)C(=O)[C@H]2[C@@]1(C)CC[C@H]1C(=O)O[C@H](c3ccoc3)C[C@]21C,melting point,,143 to 145 °C
COC(=O)[C@@H]1C[C@H](OC(=O)c2ccsc2)C(=O)[C@H]2[C@@]1(C)CC[C@H]1C(=O)O[C@H](c3ccoc3)C[C@]21C,melting point,,211 to 212 °C
COC(=O)[C@@H]1C[C@H](OC(=O)c2cc3ccccc3o2)C(=O)[C@H]2[C@@]1(C)CC[C@H]1C(=O)O[C@H](c3ccoc3)C[C@]21C,melting point,,226 to 227 °C
COC(=O)[C@@H]1C[C@H](OS(=O)(=O)c2ccccc2)C(=O)[C@@H]2[C@@]3(C)C[C@@H](c4ccoc4)OC(=O)[C@H]3CC[C@]21C,melting point,,157 to 159 °C (dec.)
COC(=O)[C@@H]1C[C@H](OS(=O)(=O)c2ccc(C)cc2)C(=O)[C@@H]2[C@@]3(C)C[C@@H](c4ccoc4)OC(=O)[C@H]3CC[C@]21C,melting point,,163 to 165 °C (dec.)
COC(=O)[C@@H]1C[C@H](OS(=O)(=O)c2ccc(OC)cc2)C(=O)[C@@H]2[C@@]3(C)C[C@@H](c4ccoc4)OC(=O)[C@H]3CC[C@]21C,melting point,,148 to 149 °C (dec.)
COC(=O)[C@@H]1C[C@H](OC(=O)Nc2ccc([N+](=O)[O-])cc2)C(=O)[C@H]2[C@@]1(C)CC[C@H]1C(=O)O[C@H](c3ccoc3)C[C@]21C,melting point,,251 to 253 °C
COC(=O)[C@@H]1C[C@H](OC(=O)Cc2ccccc2)C(=O)[C@@H]2[C@@]3(C)C[C@@H](c4ccoc4)OC(=O)[C@H]3CC[C@]21C,melting point,,111 to 114 °C
COC(=O)[C@@H]1C[C@@H](C(=O)CCc2ccccc2)C(=O)[C@@H]2[C@@]3(C)C[C@@H](c4ccoc4)OC(=O)[C@H]3CC[C@]21C,melting point,,155 to 158 °C
COC(=O)[C@@H]1C[C@H](OC(=O)c2ccccc2)C(=O)[C@H]2[C@@]1(C)CC[C@H]1C(=O)OC(c3ccoc3)C[C@]21C (stereo partly shown) [Compound Vb],ERK1/2 phosphorylation,"[1]; HEK-293 cells stably expressing HA-tagged mouse μOR, 10 min stimulation","dose dependently activates the Map Kinases, ERK1/2, in a μOR antagonist reversible manner"
same,Compound Vb-induced ERK activation after naloxone pretreatment,[1]; naloxone 10 μM during the 30 min serum starvation,blocked
same,μOR phosphorylation at serine 375,[2],does not promote robust phosphorylation
same,βarr2-GFP translocation,"HA-μOR; HEK-293, 2 μM, 10 min",does not induce βarr2-GFP translocation
same,βarr2-GFP translocation,"HA-μOR; HEK-293 overexpressing GRK2, 2 μM, 10 min",does not promote βarr2-GFP translocation
same,βarr2-GFP translocation,"HA-μOR; HEK-293 overexpressing GRK2, 100 μM, 30 min",does not promote βarr2-GFP translocation
same,μOR-YFP internalization,mouse μOR-YFP; HEK-293 overexpressing GRK2 (5 μg cDNA),does not
same,μOR-YFP internalization,mouse μOR-YFP; [6],do not induce receptor internalization
same,loss of cell surface receptors,HA-N-terminus tagged μOR,maintain the same level of cell surface receptor expression
same,μOR1-D internalization,[3],fails to internalize this receptor variant
same,total number of flinches in second phase of formalin test,[4]; acute (Day 1) and chronic (Day 5) vs vehicle,significantly inhibits formalin-induced flinching compared to vehicle in both treatment paradigms
same,antinociception Day 5 vs Day 1,[4]; chronic treatment 5 days,significantly more Compound Vb-induced antinociception than seen on Day 1
same,antinociception after naloxone pretreatment,[4]; naloxone 5 mg/kg s.c. 30 min prior,reversible by naloxone pretreatment
same,antinociception after nor-BNI pretreatment,[4]; nor-BNI 5 mg/kg s.c. 24 hours prior,did not block Compound Vb's efficacy but rather significantly enhanced it
same,development of antinociceptive tolerance,"[4]; repeated administration, 5 days",did not lead to the development of antinociceptive tolerance
same,antinociception in formalin paw-withdrawal test,"[4]; ˜0.04 mg/kg s.c. paw, 5 min prior to 1.25% formalin, acute",produced significant antinociception in the second phase
same,affinity for μOR relative to κOR,μOR,greater affinity for μOR over κOR
same,affinity for δOR,δOR,no affinity
same,affinity at κOR,κOR,retains some affinity
"C[C@@H](NC(=O)[C@@H](N)Cc1ccc(O)cc1)C(=O)NCC(=O)N(C)[C@@H](Cc1ccccc1)C(=O)NCCO [DAMGO, [D-Ala^2, N-MePhe^4, Gly^5-ol]Enkephalin, reference compound]",βarr2-GFP translocation,"HA-μOR; HEK-293, 1 μM",leads to βarr2-GFP translocation within 5 min
same,μOR-YFP internalization,mouse μOR-YFP; [6],Internalization can be seen
same,loss of cell surface receptors,HA-N-terminus tagged μOR,40%
CN1CC[C@]23c4c5ccc(O)c4O[C@H]2[C@@H](O)C=C[C@H]3[C@H]1C5 [morphine],development of tolerance,[5],produces tolerance
